The test system of series [1] is Liver cancer (HepG2) cells. Briefly: HepG2 cell viability (MTT), peptides and ADP-ribose alone or in combination. The class given is cell-based, human. The conditions noted are these: treated groups vs untreated, ADPR 1 mM, peptide 25 μM, CPP-peptide 10 μM, 96 hours. How it is done:
(§1) 2.5×10^3 Liver cancer (HepG2) cells were cultured in a 96-well plate for 24 hours under 37° C. and 5% CO2 conditions, and then divided into the following groups and treated with each peptide according to Examples at GI50 concentration alone or in combination. • 1) Untreated group • 2) Group treated with ADPR at 1 mM concentration alone • 3) Group treated with peptide of Example 4 at 25 μM concentration alone • 4) Group treated with each CPP-peptide of Example 18 at 10 μM concentration alone • 5) Group treated in combination with ADPR at 1 mM concentration and peptide of Example 4 at 25 μM concentration (Combination 1) • 6) Group treated in combination with ADPR at 1 mM concentration and CPP-peptide of Example 18 at 10 μM concentration (Combination 2)
(§2) The cells were then cultured for another 96 hours under 37° C. and 5% CO2 conditions, and 10 μl of 3-(4,5-dimethylthiazol-2-yl)-2,5-diphenyltetrazolium bromide reagent was added to each well and reacted for 1 hour. The reagent was removed at the end of the reaction, 200 μl of dimethyl sulfoxide was then added to each well, and the absorbance was measured to determine the cell viability.

Series [2] concerns Kidney cancer (Caki-1) cells. Description: Caki-1 cell viability (MTT), peptides and ADP-ribose alone or in combination. The conditions noted are these: treated groups vs untreated, ADPR 1 mM, peptide 25 μM, CPP-peptide 10 μM, 96 hours. It is filed as cell-based, human. How it is done:
as §1, with “2.5×10^3 Kidney” for “2.5×10^3 Liver”, “cancer (Caki-1)” for “cancer (HepG2)”, “Example 1” for “Example 4”, “Example 15” for “Example 18”
as §2

The subject of another series is MDA-MB-231 cancer cells. Briefly: MDA-MB-231 cell viability (MTT), sustained release derivative alone or in combination. It is filed as cell-based. To be noted: single treatment (derivative 5 μM, ADPR 2 mM, NAD^+ 2 mM, anti-cancer drugs), 96 hours. How it is done:
Each of 2.5×10^3 human-derived pancreatic cancer (Aspc-1), kidney cancer (Caki-1), breast cancer (HCC1937), liver cancer (HepG2), lung cancer (H1975), colon cancer (HCT116), ovarian cancer (OVCAR-3), brain cancer (U87) cells were cultured in a 96-well plate under 37° C. and 5% CO2 conditions for 24 hours, and then treated with the sustained release derivative alone. In addition, MDA-MB-231 cancer cells were divided into the following groups and treated with each formulation at GI20 concentration alone or in combination. • 1) Untreated group • 2) Group treated with sustained-release derivative alone at 5 μM concentration • 3) Group treated with ADPR at 2 mM concentration alone • 4) Group treated with NAD^+ at 2 mM concentration alone • 5) Groups treated with various anti-cancer drugs alone (Cisplatin at 2 μM, Docetaxel at 1 μM, Dichloroacetate at 3 mM, Doxorubicin at 2 μM, Sorafenib at 2 μM, Osimertinib at 10 nM, Trastuzumab at 0.2 μM, Bevacizumab at 0.2 nM, Tamoxifen at 0.2 μM, or Olaparib at 1 μM) • 6) Group treated in combination with ADPR at 2 mM concentration and a sustained-release derivative at 5 μM concentration • 7) Group treated in combination with ADPR at 2 mM concentration, NAD^+ at 2 mM concentration, and a sustained-release derivative at 5 μM concentration • 8) Group treated in combination with ADPR at 2 mM concentration, a sustained-release derivative at 5 μM concentration, and various anti-cancer drugs (same concentration as Group 5 above).
The cells were then cultured for another 96 hours at 37° C. and 5% CO2, and 10 μl of 3-(4,5-dimethylthiazol-2-yl)-2,5-diphenyltetrazolium bromide reagent was added to each well and reacted for 1 hour. The reagent was removed at the end of the reaction, 200 μl of dimethyl sulfoxide was then added to each well, and the absorbance was measured to determine the cell viability.

The test system of series [3] is Lung cancer (H1975) cells. Briefly: H1975 cell viability (MTT), peptides and ADP-ribose alone or in combination. The conditions noted are these: treated groups vs untreated, ADPR 1 mM, peptide 25 μM, CPP-peptide 10 μM, 96 hours. It is filed as cell-based, human. The protocol:
as §1, with “2.5×10^3 Lung” for “2.5×10^3 Liver”, “cancer (H1975)” for “cancer (HepG2)”, “Example 5” for “Example 4”, “Example 19” for “Example 18”
as §2

The subject of series [4] is Colon cancer (HCT116) cells. Description: HCT116 cell viability (MTT), peptides and ADP-ribose alone or in combination. It is filed as cell-based, human. The conditions noted are these: treated groups vs untreated, ADPR 1 mM, peptide 25 μM, CPP-peptide 10 μM, 96 hours. How it is done: as §1, with “2.5×10^3 Colon” for “2.5×10^3 Liver”, “cancer (HCT116)” for “cancer (HepG2)”, “Example 6” for “Example 4”, “Example 20” for “Example 18”
as §2

The test system of series [5] is Pancreatic cancer (AsPC-1) cells. Briefly: AsPC-1 cell viability (MTT), peptides and ADP-ribose alone or in combination. It is filed as cell-based, human. The conditions noted are these: treated groups vs untreated, ADPR 1 mM, peptide 25 μM, CPP-peptide 10 μM, 96 hours. The protocol:
as §1, with “2.5×10^3 Pancreatic” for “2.5×10^3 Liver”, “cancer (AsPC-1)” for “cancer (HepG2)”, “Example 3” for “Example 4”, “Example 17” for “Example 18”
as §2

The source of these data is patent publication US20250250310A1, “COMBINATION THERAPY WITH ADP-RIBOSE BINDING PEPTIDE AND ADP-RIBOSE FOR PREVENTION OR TREATMENT OF CANCER” (PEARLSINMIRES CO., LTD., priority 2023, published 2025).

A word on the cell viability: it is a read-out of living cells in per cent, often relative to untreated cells. For `Nc1ncnc2c1ncn2[C@@H]1O[C@H](COP(=O)(O)OP(=O)(O)OC[C@H]2O[C@@H](O)C(O)C2O)C(O)C1O` (stereo partly drawn) [ADP-ribose], the cell viability entry in series [1] was “viability was reduced”; in series [2], “viability was reduced”; with MDA-MB-231 cancer cells it was 80%; in series [3], “viability was reduced”; in series [4] it was “viability was reduced”; in series [5], “viability was reduced”.
